Laboratory results from patent US8987314B2, “Amide, urea or sulfone amide linked benzothiazole inhibitors of endothelial lipase” (Bristol-Myers Squibb Company, priority 2012, dated 2015).

Columns and labels:
Endothelial lipase (EL) = Endothelial lipase (EL) (Homo sapiens (Human), UniProt Q9Y5X9); assay: EL assay: endothelial lipase activity with fluorescent substrate A10070 in DMPG vesicles; type: biochemical
Experimental: (§1) Endothelial lipase (EL) and hepatic lipase (HL) activities were measured using a fluorescent substrate, A10070, (Invitrogen, CA) doped into an artificial vesicle containing DMPG (Avanti Polar Lipids) as the excipient. Vesicles were prepared by combining 571 μL of 29 mM DMPG in a 1:1 mixture of MeOH and CHCl3 with 2000 μL of 1 mM A10070 in a 1:1 mixture of MeOH and CHCl3. The mixture was dried under nitrogen in multiple vials then resuspended in 20 mL total volume of 50 mM HEPES pH 8.0 buffer containing 50 mM NaCl and 0.2 mM EDTA. The sample was allowed to sit at room temperature for 15 min and then was sonicated 3×4 mins on ice with a Branson Sonicator using duty cycle 1. This preparation provides vesicles with a mole fraction of 0.11 for the FRET substrate.
(§2) The enzymatic assay was measured using 384-well white Optiplates. Each well contained 20 μL of assay buffer (50 mM HEPES pH 8.0, 50 mM NaCl and 1 mM CaCl2) and 0.25 μL of a DMSO solution containing a compound of interest. EL or HL (10 μL) was added and allowed to incubate with the compound for 30 min at 37° C. The source of EL was conditioned media obtained from HT-1080 cells that were transformed using RAGE technology (Athersys) to overexpress endogenous EL, and HL was partially purified from conditioned media obtained from COS cells overexpressing HL. The reaction was started by the addition of 10 μL of a 1:10 dilution of vesicles. The final total reaction volume was […]. The reaction rates were measured on a Gemini plate reader with an excitation wavelength of 490 nm and an emission wavelength of 530 nm. Readings were taken over a period of 60 minutes, and the slope between 300 and 900 secs of the readout was used to calculate the rate of the reaction.

hepatic lipase (HL) = hepatic lipase (HL) (Homo sapiens (Human), UniProt P11150); assay: HL assay: hepatic lipase activity with fluorescent substrate A10070 in DMPG vesicles; type: biochemical
Experimental: as §1, §2

Sequence of Endothelial lipase (EL) (Q9Y5X9 21-500): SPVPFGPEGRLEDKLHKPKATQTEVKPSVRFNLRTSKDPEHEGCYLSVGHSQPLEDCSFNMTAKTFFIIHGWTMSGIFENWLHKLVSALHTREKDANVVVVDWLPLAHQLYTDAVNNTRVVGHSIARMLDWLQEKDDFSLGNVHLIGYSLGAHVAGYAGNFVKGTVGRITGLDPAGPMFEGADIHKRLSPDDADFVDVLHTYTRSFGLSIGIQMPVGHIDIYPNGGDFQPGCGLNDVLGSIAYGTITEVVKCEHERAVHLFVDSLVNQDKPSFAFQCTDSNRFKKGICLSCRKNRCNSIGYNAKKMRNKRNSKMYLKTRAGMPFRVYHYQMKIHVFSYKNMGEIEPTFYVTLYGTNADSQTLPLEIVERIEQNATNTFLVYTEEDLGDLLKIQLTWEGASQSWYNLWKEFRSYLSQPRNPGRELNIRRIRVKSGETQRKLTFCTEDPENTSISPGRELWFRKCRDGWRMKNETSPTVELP
Sequence of hepatic lipase (HL) (P11150 23-499, species assumed): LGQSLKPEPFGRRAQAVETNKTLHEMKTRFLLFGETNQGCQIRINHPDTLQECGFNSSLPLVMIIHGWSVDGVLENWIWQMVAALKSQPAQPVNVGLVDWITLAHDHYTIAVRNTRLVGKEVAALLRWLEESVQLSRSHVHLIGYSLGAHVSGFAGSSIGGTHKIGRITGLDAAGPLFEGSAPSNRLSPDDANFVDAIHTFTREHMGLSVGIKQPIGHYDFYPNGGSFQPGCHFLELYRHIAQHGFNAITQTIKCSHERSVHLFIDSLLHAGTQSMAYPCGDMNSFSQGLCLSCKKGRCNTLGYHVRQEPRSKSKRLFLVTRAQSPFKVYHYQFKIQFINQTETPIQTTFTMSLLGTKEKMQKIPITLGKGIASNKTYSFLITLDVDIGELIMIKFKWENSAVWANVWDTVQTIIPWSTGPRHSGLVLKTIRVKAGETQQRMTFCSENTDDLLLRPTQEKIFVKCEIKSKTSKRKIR

Compound	IC50 (Endothelial lipase (EL)) [nM]	IC50 (hepatic lipase (HL)) [nM]
COCCOc1ccc(-c2ccc3nc(C(C(=O)NCCS(N)(=O)=O)S(C)(=O)=O)sc3c2)cc1 (centres unmarked) [Example B48, 2-(6-(4-(2-methoxyethoxy)phenyl)-1,3-benzothiazol-2-yl)-2-(methylsulfonyl)-N-(2-sulfamoylethyl)acetamide]	< 10	11
COCCNC(=O)c1cccc(-c2ccc3nc(C(C(=O)NCCS(N)(=O)=O)S(C)(=O)=O)sc3c2)c1 (centres unmarked) [Example B49, N-(2-methoxyethyl)-3-(2-(1-(methylsulfonyl)-2-oxo-2-((2-sulfamoylethyl)a-mino)ethyl)-1,3-benzothiazol-6-yl)ben-zamide]	< 10	152
CS(=O)(=O)C(C(=O)NCCS(N)(=O)=O)c1nc2ccc(-c3ccc(C#N)cc3)cc2s1 (centres unmarked) [Example B50, 2-(6-(4-cyanophenyl)-1,3-benzothiazol-2-yl)-2-(methylsulfonyl)-N-(2-Sulfamoylethyl)acetamide]	< 10	14
CS(=O)(=O)C(C(=O)NCCS(N)(=O)=O)c1nc2ccc(-c3cccc(C#N)c3)cc2s1 (centres unmarked) [Example B51, 2-(6-(3-cyanophenyl)-1,3-benzothiazol-2-yl)-2-(methylsulfonyl)-N-(2-sulfamoylethyl)acetamide]	< 10	< 10
CC(=O)Nc1cccc(-c2ccc3nc(C(C(=O)NCCS(N)(=O)=O)S(C)(=O)=O)sc3c2)c1 (centres unmarked) [Example B52, 2-(6-(3-acetamidophenyl)-1,3-benzothiazol-2-yl)-2-(methylsulfonyl)-N-(2-sulfamoylethyl)acetamide]	< 10	66
NS(=O)(=O)CCNC(=O)C(c1nc2ccc(-c3ccc(CCO)cc3)cc2s1)S(=O)(=O)CCC(F)(F)F (centres unmarked) [Example B53, 2-(6-(4-(2-hydroxyethyl)phen-yl)-1,3-benzothiazol-2-yl)-N-(2-sulfamoylethyl)-2-((3,3,3-trifluoropropyl)sul-fonyl)acetamide]	< 10	152
NS(=O)(=O)CCNC(=O)C(c1nc2ccc(-c3ccc(OCCN4CCCCC4)cc3)cc2s1)S(=O)(=O)CCC(F)(F)F (centres unmarked) [Example B54, 2-(6-(4-(2-(1-piperidinyl)ethoxy)phenyl)-1,3-benzothiazol-2-yl)-N-(2-sulfamoylethyl)-2-((3,3.3-trifluoropropyl)sul-fonyl)acetamide]	< 10	23
CC(=O)Nc1ccc(-c2ccc3nc(C(C(=O)NCCS(N)(=O)=O)S(=O)(=O)CCC(F)(F)F)sc3c2)cc1 (centres unmarked) [Example B55, 2-(6-(4-acetamidophenyl)-1,3-benzothiazol-2-yl)-N-(2-sulfamoylethyl)-2-((3,3,3-trifluoropropyl)sul-fonyl)acetamide]	< 10	55
CS(=O)(=O)C(C(=O)NCCS(N)(=O)=O)c1nc2ccc(-c3ccc(CO)cc3)cc2s1 (centres unmarked) [Example B56, 2-(6-(4-(hydroxymethyl)phen-yl)-1,3-benzothiazol-2-yl)-2-(methylsulfonyl)-N-(2-sulfamoylethyl)a-cetamide]	< 10	122
CS(=O)(=O)C(C(=O)NCCS(N)(=O)=O)c1nc2ccc(-c3ccc(S(=O)(=O)NCCO)cc3)cc2s1 (centres unmarked) [Example B57, 2-(6-(4-((2-hydroxyeth-yl)sulfamoyl)phenyl)-1,3-benzothiazol-2-yl)-2-(methylsulfonyl)-N-(2-sulfamoylethyl)acetamide]	< 10	144
CS(=O)(=O)C(C(=O)NCCS(N)(=O)=O)c1nc2ccc(-c3cccc(CCO)c3)cc2s1 (centres unmarked) [Example B58, 2-(6-(3-(2-hydroxyethyl)phenyl)-1,3-benzothiazol-2-yl)-2-(methylsulfonyl)-N-(2-sulfamoylethyl)acetamide]	< 10	36
NS(=O)(=O)CCNC(=O)C(c1nc2ccc(-c3ccc(C(=O)NCCO)cc3)cc2s1)S(=O)(=O)CC1CC1 (centres unmarked) [Example B59, 4-(2-(1-((cyclopropylmeth-yl)sulfonyl)-2-oxo-2-((2-sulfamoylethyl)amino)eth-yl)-1,3-benzothiazol-6-yl)-N-(2-hydroxyethyl)ben-zamide]	< 10	102
NS(=O)(=O)CCNC(=O)C(c1nc2ccc(-c3ccc(CCO)cc3)cc2s1)S(=O)(=O)CC1CC1 (centres unmarked) [Example B60, 2-((cyclopropylmethyl)sul-fonyl)-2-(6-(4-(2-hydroxyethyl)phenyl)-1,3-benzothiazol-2-yl)-N-(2-sulfamoylethyl)acetamide]	< 10	61

Continued, values first:

IC50 (Endothelial lipase (EL)) [nM]	IC50 (hepatic lipase (HL)) [nM]	Compound
< 10	50	CN1CCOc2cc(-c3ccc4nc(C(C(=O)NCCS(N)(=O)=O)S(C)(=O)=O)sc4c3)ccc21 (centres unmarked) [Example B61, 2-(6-(4-methyl-3,4-dihydro-2H-1,4-benzoxazin-7-yl)-1,3-benzothiazol-2-yl)-2-(methylsulfonyl)-N-(2-sulfamoylethyl)acetamide]
1.2	1	CS(=O)(=O)C(C(=O)NCCS(N)(=O)=O)c1nc2ccc(-c3cccc(N4CCCC4)c3)cc2s1 (centres unmarked) [Example B62, 2-(methylsulfonyl)-2-(6-(3-(1-pyrrolidinyl)phenyl)-1,3-benzothiazol-2-yl)-N-(2-sulfamoylethyl)a-cetamide]
0.5	2.6	COCc1ccc(-c2ccc3nc(C(C(=O)NCCS(N)(=O)=O)S(C)(=O)=O)sc3c2)cc1 (centres unmarked) [Example B63, 2-(6-(4-(methoxymethyl)phen-yl)-1,3-benzothiazol-2-yl)-2-(methylsulfonyl)-N-(2-sulfamoylethyl)a-cetamide]
0.5	1.9	COCCOC(=O)Nc1ccc(-c2ccc3nc(C(C(=O)NCCS(N)(=O)=O)S(C)(=O)=O)sc3c2)cc1 (centres unmarked) [Example B64, 2-methoxyethyl(4-(2-(1-(methylsulfonyl)-2-oxo-2-((2-sulfamoylethyl)amino)eth-yl)-1,3-benzothiazol-6-yl)phenyl)carbamate]
< 10	61	NS(=O)(=O)CCNC(=O)C(c1nc2ccc(-c3ccc(C(=O)NCC(F)(F)F)cc3)cc2s1)S(=O)(=O)Cc1ccc(F)cc1 (centres unmarked) [Example B65, 4-(2-(1-((4-fluorobenzyl)sul-fonyl)-2-oxo-2-((2-sulfamoylethyl)amino)ethyl)-1,3-benzothiazol-6-yl)-N-(2,2,2-trifluoroethyl)ben-zamide]
< 10	41	CC(C)Cn1cc(-c2ccc3nc(C(C(=O)NCCS(N)(=O)=O)S(C)(=O)=O)sc3c2)cn1 (centres unmarked) [Example B67, 2-[6-(1-isobutyl-1H-pyrazol-4-yl)-1,3-benzothiazol-2-yl]-2-(methylsulfonyl)-N-(2-sulfamoylethyl)acetamide]
< 10	< 10	CS(=O)(=O)C(C(=O)NCCS(N)(=O)=O)c1nc2ccc(-c3cnn(Cc4ccccc4)c3)cc2s1 (centres unmarked) [Example B68, 2-[6-(1-benzyl-1H-pyrazol-4-yl)-1,3-benzothiazol-2-yl]-2-(methylsulfonyl)-N-(2-sulfamoylethyl)a-cetamide]
< 10	612	NS(=O)(=O)CCNC(=O)C(c1nc2ccc(-c3cnn(CCN4CCOCC4)c3)cc2s1)S(=O)(=O)CCC(F)(F)F (centres unmarked) [Example B69, 2-(6-(1-(2-(4-morpholinyl)eth-yl)-1H-pyrazol-4-yl)-1,3-benzothiazol-2-yl)-N-(2-sulfamoylethyl)-2-((3,3,3-trifluoropropyl)sul-fonyl)acetamide]
< 10	< 10	COCCS(=O)(=O)C(C(=O)NCCS(N)(=O)=O)c1nc2ccc(-c3ccc(NC(=O)OC(C)(C)C)cc3)cc2s1 (centres unmarked) [Example B70, tert-butyl (4-(2-(1-((2-methoxyethyl)sulfonyl)-2-oxo-2-((2-sulfamoylethyl)a-mino)ethyl)-1,3-benzothiazol-6-yl)phenyl)car-bamate]
< 10	< 10	COCCS(=O)(=O)C(C(=O)NCCS(N)(=O)=O)c1nc2ccc(-c3ccc(NC(=O)OC)cc3)cc2s1 (centres unmarked) [Example B71, methyl (4-(2-(1-((2-methoxyethyl)sulfonyl)-2-oxo-2-((2-sulfamoylethyl)a-mino)ethyl)-1,3-benzothiazol-6-yl)phenyl)car-bamate]
< 10	68	NS(=O)(=O)CCNC(=O)C(c1nc2ccc(-c3ccnc(F)c3)cc2s1)S(=O)(=O)CCC(F)(F)F (centres unmarked) [Example B72, 2-(6-(2-fluoro-4-pyridinyl)-1,3-benzothiazol-2-yl)-N-(2-sulfamoylethyl)-2-((3,3,3-trifluoropropyl)sulfonyl)a-cetamide]
< 10	15900	NS(=O)(=O)CCNC(=O)C(c1nc2ccc(-c3cnn(CCN4CCOCC4)c3)cc2s1)S(=O)(=O)Cc1ccc(C(F)(F)F)cc1 (centres unmarked) [Example B73, 2-(6-(1-(2-(4-morpholinyl)ethyl)-1H-pyrazol-4-yl)-1,3-benzothiazol-2-yl)-N-(2-sulfamoylethyl)-2-((4-(trifluoromethyl)benzyl)sul-fonyl)acetamide]
